Measured values reported in patent US20130225615A1, “2-CYCLOQUINAZOLINE DERIVATIVES AND METHODS OF USE THEREOF” (AMBIT BIOSCIENCES CORPORATION, priority 2010, published 2013).

Key:
[1] = tested on: panel of distinct kinases excluding mutant variants, typically 359 or 386 kinases; experiment: Kinase selectivity score S10 from binding panel; details: compound at 10 μM; fraction of kinases with inhibition of 90% or greater
Experimental: (§1) Competition binding assays used herein were developed, validated and performed as described in Fabian et al., Nature Biotechnology 2005, 23,329-336. Kinases were produced as fusions to T7 phage (See, Fabian et al. or WO04/015142) or alternatively, the kinases were expressed in HEK-293 cells and subsequently tagged with DNA for PCR detection (See, WO08/005,310). For the binding assays, streptavidin-coated magnetic beads were treated with biotinylated affinity ligands for 30 min at rt to generate affinity resins. The liganded beads were blocked with excess biotin and washed with blocking buffer (SeaBlock (Pierce), 1% BSA, 0.05% Tween 20, 1 mM DTT) to remove unbound ligand and to reduce non-specific binding. Binding reactions were assembled by combining kinase, liganded affinity beads, and test compounds in 1× binding buffer (20% SeaBlock, 0.17×PBS, 0.05% Tween 20, 6 mM DTT). Test compounds were prepared as 100× stocks in DMSO and rapidly diluted into the aqueous environment. DMSO was added to control assays lacking a test compound. Primary screen interactions were performed in polypropylene 384-well plates in a final volume of 34 μL, while Kd determinations were performed in polystyrene 96-well plates in a final volume of 135 μL. The assay plates were incubated at room temperature with shaking for 1 hour, long enough for binding reactions to reach equilibrium, and the affinity beads were washed extensively with wash buffer (1×PBS, 0.05% Tween 20) to remove unbound protein. The beads were then resuspended in elution buffer (1×PBS, 0.05% Tween 20, 2 μM non-biotinylated affinity ligand) and incubated at room temperature with shaking for 30 min. The kinase concentration in the eluates was measured by quantitative PCR. Each kinase was tested individually against each compound. Kds were determined using eleven serial threefold dilutions. A selectivity score, which is a quantitative measure of selectivity of a compound against a panel of enzymes, may be calculated for a compound by dividing the number of enzymes for which a compound meets a set criteria, (for example, a binding constant of 100 nM or less), by the total number of enzymes tested.

JAK2 = molecular target: T1, JAK2 (Homo sapiens, UniProt O60674); experiment: Competition binding assay, JAK2
T1 construct: made in house
Description: (§2) Determination of Binding Constants (Kd) of the Compounds Against JAK Kinases
as §1

TYK2 = molecular target: T2, TYK2 (Homo sapiens, UniProt P29597); experiment: Competition binding assay, TYK2
T2 construct: made in house
Description: as §2, §1

[2] = tested on: GM-CSFR/JAK2/STAT5 pathway in CSTF-1 cells; experiment: CSTF-1 cell-based reporter assay (beta-lactamase, GM-CSF stimulated); details: Homo sapiens; GM-CSF at 2 ng/mL, 4 hours; read-out: Cell Assay: CS TF-1 reporter assay IC50
Experimental: CSTF-1 Cell-Based Reporter Assay
CSTF-1 cells are derived from the human erythroleukemia cell line that is growth dependent on GM-CSF and has an intact GM-CSFR/JAK2/STAT5 pathway. The cell line contains stably integrated beta-lactamase reporter gene under the control of the […] (irf 1) response element recognized by the activated transcription factor STATS. csTF-1 cells (Invitrogen K1219) were washed with assay media (97% OPTIMEM/0.5% dialyzed FBS/0.1 mM NEAA/1 mM Na pyr/P/S) and seeded in the same media at 5×10^5 cell/mL in T150 flask. After 16 hour incubation, cells were seeded at 2×10^5 cell/well in 50 μl volume, into Costar, clear bottom, 96-well assay plates. Serial dilutions of compounds were added to the plates with final DMSO concentration at 0.5% and GM-CSF at 2 ng/mL and the plates were then incubated at […] and 5% CO2 for 4 hours. The plates were brought to room temperature before adding Substrate Mixture according to manufacturer's protocol (Invitrogen, Catalog #K1085). The assay plates containing the substrate mixture were incubated in the dark at room temperature for 2 hours. Blue and green fluorescence was measured with excitation at 409 nm and emission at 460 nm (for blue) and excitation at 409 nm and emission at 530 nm (for green) using Spectra Max Gemini EM.

JAK3 = molecular target: T3, JAK3 (Homo sapiens, UniProt P52333); experiment: Competition binding assay, JAK3
T3 construct: made in house
T3 sequence (P52333 1-1124): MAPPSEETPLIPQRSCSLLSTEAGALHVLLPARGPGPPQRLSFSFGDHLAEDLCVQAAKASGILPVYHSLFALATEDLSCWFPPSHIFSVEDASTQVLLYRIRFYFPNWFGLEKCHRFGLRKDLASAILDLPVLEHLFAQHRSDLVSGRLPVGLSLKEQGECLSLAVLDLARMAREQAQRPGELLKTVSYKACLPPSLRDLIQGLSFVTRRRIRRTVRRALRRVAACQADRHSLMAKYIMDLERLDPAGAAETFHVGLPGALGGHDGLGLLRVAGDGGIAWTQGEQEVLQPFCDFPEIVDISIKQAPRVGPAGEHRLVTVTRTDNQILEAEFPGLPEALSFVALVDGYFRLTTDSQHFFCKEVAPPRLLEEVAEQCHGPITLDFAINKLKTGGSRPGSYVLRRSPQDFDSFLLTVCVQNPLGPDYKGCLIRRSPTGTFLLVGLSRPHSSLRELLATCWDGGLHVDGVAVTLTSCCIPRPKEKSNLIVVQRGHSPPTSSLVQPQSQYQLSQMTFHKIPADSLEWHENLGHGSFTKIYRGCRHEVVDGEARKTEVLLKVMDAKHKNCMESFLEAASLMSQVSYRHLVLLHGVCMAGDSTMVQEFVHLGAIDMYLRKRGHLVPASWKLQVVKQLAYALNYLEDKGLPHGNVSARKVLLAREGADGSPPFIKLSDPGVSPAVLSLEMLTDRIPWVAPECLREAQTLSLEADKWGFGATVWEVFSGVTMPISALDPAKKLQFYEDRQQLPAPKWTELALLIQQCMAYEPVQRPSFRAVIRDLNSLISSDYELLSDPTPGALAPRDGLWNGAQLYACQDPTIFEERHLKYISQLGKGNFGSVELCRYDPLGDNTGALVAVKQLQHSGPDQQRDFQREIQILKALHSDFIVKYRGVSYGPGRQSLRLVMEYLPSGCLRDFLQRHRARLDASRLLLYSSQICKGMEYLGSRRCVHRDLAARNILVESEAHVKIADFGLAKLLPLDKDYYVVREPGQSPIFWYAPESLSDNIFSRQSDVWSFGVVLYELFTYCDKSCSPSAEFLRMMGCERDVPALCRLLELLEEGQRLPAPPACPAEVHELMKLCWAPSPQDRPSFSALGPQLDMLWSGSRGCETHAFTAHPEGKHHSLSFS
Description: as §2, §1

T2 sequence (P29597 whole entry): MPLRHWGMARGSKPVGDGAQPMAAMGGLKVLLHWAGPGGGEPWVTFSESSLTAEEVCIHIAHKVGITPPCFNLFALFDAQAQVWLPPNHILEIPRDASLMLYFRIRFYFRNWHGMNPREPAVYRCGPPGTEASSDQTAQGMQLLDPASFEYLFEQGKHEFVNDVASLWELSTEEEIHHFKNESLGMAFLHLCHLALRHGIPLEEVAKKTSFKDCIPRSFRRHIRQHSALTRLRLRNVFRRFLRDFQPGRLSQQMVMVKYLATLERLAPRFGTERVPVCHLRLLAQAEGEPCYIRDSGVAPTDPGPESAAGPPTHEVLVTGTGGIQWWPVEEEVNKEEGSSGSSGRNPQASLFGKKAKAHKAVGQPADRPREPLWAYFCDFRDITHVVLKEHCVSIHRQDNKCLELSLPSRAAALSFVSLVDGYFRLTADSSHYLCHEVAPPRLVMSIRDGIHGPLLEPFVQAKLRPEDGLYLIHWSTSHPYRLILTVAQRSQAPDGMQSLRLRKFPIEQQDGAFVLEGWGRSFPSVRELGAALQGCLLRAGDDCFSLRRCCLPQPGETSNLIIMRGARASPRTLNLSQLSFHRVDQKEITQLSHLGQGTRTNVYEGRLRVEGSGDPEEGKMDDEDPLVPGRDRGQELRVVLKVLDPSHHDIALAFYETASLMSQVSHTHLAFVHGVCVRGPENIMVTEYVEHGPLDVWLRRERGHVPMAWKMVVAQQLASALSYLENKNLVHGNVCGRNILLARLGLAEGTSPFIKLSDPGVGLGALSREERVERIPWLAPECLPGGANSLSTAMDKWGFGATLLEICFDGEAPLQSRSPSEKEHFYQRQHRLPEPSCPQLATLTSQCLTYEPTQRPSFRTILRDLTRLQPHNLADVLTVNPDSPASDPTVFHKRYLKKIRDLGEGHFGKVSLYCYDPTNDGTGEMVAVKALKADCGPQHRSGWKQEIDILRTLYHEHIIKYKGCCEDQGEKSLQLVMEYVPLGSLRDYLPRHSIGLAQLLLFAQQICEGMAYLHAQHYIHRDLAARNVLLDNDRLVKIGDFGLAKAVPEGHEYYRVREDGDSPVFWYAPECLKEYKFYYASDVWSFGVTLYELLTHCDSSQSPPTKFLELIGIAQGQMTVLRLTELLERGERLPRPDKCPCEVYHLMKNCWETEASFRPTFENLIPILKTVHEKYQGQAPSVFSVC
T1 sequence (O60674 whole entry): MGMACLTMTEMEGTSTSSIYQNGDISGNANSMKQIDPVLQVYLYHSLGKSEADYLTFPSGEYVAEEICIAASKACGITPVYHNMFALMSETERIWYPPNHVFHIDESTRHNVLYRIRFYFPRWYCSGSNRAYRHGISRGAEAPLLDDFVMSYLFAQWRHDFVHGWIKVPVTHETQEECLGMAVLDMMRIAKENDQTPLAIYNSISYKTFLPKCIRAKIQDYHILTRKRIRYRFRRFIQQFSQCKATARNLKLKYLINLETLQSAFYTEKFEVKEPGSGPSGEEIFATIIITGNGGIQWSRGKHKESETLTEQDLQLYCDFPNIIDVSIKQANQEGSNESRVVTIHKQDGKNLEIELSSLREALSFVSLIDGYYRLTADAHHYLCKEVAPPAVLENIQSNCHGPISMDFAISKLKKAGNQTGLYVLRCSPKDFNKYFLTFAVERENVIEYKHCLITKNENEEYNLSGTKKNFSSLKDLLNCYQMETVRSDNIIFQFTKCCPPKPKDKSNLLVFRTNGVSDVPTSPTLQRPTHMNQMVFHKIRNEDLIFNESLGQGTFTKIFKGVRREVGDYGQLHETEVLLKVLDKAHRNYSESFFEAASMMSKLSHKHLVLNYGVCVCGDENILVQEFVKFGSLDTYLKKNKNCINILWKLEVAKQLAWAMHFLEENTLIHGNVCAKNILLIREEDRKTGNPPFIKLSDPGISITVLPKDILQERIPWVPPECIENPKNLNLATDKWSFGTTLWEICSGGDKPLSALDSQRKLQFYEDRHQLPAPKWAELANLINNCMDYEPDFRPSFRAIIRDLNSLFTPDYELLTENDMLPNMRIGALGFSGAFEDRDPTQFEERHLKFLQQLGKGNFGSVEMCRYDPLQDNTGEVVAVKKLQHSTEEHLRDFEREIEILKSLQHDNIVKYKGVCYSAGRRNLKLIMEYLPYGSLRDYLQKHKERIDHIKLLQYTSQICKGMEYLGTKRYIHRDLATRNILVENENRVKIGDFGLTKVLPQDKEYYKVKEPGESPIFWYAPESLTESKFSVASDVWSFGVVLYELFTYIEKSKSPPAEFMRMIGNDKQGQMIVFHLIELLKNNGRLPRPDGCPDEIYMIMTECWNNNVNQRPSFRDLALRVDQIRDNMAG

Row | Compound | S-Score: S(10) at 10 μM [1] | Kd (JAK2) | Kd (TYK2) | IC50 [2] | Kd (JAK3)
1 | Cc1cc(Nc2nc([C@]3(c4ccc(F)cc4)C[C@@H](F)C3)nc3ccccc23)n[nH]1 [Example 2, 2-((1R,3R)-3-fluoro-1-(4-fluorophenyl)cyclobutyl)-N-(5-methyl-1H-pyrazol-3-yl)quinazolin-4-amine] | A (A≦0.3) | 1 to 10 nM | 10 to 100 nM | > 500 nM | 10 to 100 nM
2 | Cc1cc(Nc2nc(C3(c4ccc(F)cc4)CCOCC3)nc3ccccc23)n[nH]1 [Example 4, 2-(4-(4-fluorophenyl)tetrahydro-2H-pyran-4-yl)-N-(5-methyl-1H-pyrazol-3-yl)quinazolin-4-amine] | A (A≦0.3) | 1 to 10 nM | ≤ 10 nM | 100 to 500 nM | 10 to 100 nM
3 | Cc1cc(Nc2nc([C@]3(c4ccc(F)cc4)C[C@@H](O)C3)nc3ccccc23)n[nH]1 [Example 3, (1R,3R)-3-(4-fluorophenyl)-3-(4-((5-methyl-1H-pyrazol-3-yl)amino)quinazolin-2-yl)cyclobutanol] | A (A≦0.3) | ≤ 1 nM | 10 to 100 nM | 100 to 500 nM | 10 to 100 nM
4 | Cc1cc(Nc2nc([C@]3(c4ccc(F)cc4)C[C@H](O)C3)nc3ccccc23)n[nH]1 [Example 1, (1S,3S)-3-(4-fluorophenyl)-3-(4-(5-methyl-1H-pyrazol-3-ylamino)quinazolin-2-yl)cyclobutanol] | A (A≦0.3) | ≤ 1 nM | 10 to 100 nM | 100 to 500 nM | 10 to 100 nM
